Results as given in patent publication US20250346582A1, “SPLEEN TYROSINE KINASE INHIBITORS AND METHODS OF USE THEREOF” (THE BOARD OF TRUSTEES OF THE UNIVERSITY OF ILLINOIS, priority 2022, published 2025).

Experiments:
[1] = tested on: phosphorylation of Syk, STAT3/5 and ERK1/2; experiment: Western blot of IgG2-stimulated phosphorylation in MV4-11 AML cells; assay type: cell-based; details: MV4-11 cells, 5 μM overnight
Experimental: FIGS. 2A-2D show the inhibition of the signaling activity and proliferation of MV4-11 AML cells by Syk-cSH2 inhibitors. […] GAPDH was used as a gel loading control. […] Imax and IC50 values were determined by non-linear least-squares analysis of data using the equation: I=Imax/(1+IC50/[inhibitor]) where I indicates % inhibition at a given inhibitor concentration ([inhibitor]). (c) Inhibition of IgG2-stimulated phosphorylation of Syk, STAT3/STAT5 and ERK1/2 in entospletinib-resistant MV-4-11 cells by 5 μM of WC35, WC36, and WC38.
(§1) Cells were seeded at a density of 3.0×10^5 cells/well prior to incubation with inhibitors. Cells were incubated with 1-5 μM of Syk inhibitors overnight and stimulated with different antibodies: IgG2 for AML cells, IgM for Raji B cells, and OKT3 (Biolegend) for Jurkat cells. The cells were lysed in NP40 lysis buffer (50 mM Tris, pH 7.5, 150 mM NaCl, 1 mM EDTA, 1% NP40, 10% glycerol, 10 mM NaF, 10 mM Na3VO4, and the protease inhibitor cocktail) at 4° C. and the cell debris was removed by centrifugation. Samples were analyzed by SDS-PAGE. Proteins were separated and transferred to Immobilon-P polyvinylidene difluoride membrane (Millipore Sigma). The membrane was blocked with 5% bovine serum albumin for 1 h and incubated overnight at 4° C. with various antibodies (1:1000 dilution for all antibodies). After the unbound antibodies were removed by washing with 0.1% Tris buffer saline with 0.1% Tween20, the membranes were incubated with the horseradish peroxidase secondary antibody (1:5000 dilution) for 1 h at room temperature. The membranes were washed three more times with 0.1% Tris buffer saline with 0.1% Tween20 to remove the unbound horseradish peroxidase secondary antibody before imaging. The chemiluminescence intensity of protein bands in the gel was analyzed and documented by the Azure 500Q Imaging System.

[2] = target: T1, ZAP70-cSH2 (Homo sapiens, UniProt P43403); experiment: Fluorescence quenching vesicle binding assay, ZAP70-cSH2; details: for Emax: read-out: Imax (%); for inhibition of ZAP-70-cSH2 binding to POPC/POPS/PIP3/dabsyl-PE vesicles: in words
T1 construct: polyhistidine (N); made in house; host or cells: Escherichia coli BL21 (DE3) pLysS
T1 sequence (P43403 163-254 limits assumed): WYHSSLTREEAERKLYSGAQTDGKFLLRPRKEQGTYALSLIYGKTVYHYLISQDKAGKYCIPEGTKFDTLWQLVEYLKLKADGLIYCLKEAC
Experimental: (§2) The membrane-binding assay is based on fluorescence quenching of EGFP fused to a SH2 domain by a dark quencher containing lipid, dabsyl-PE, incorporated in lipid vesicles. The plate reader assay was performed using the Synergy™ Neo spectrofluorometer at 25° C. Nontreated black polystyrene 96-well plates (Corning) were used. Protein (10-50 nM) with the increasing concentration of vesicles with a given lipid composition in 20 mM Tris buffer, pH 7.4, containing 0.16 M NaCl was added to each row of wells and the EGFP fluorescence emission at 516 nm was measured with excitation set at 485 nm. Z′ factor for the assay system was determined as described^74. Imax and IC50 values of inhibitors were determined using the equation, I=Imax/(1+IC50/[I]) where I and [I] indicate % inhibition and inhibitor concentration, respectively. The average and standard deviation values were obtained from triplicate determinations.
(§3) We also optimized a recently developed fluorescence quenching-based lipid-binding assay^47 for high-throughput screening of these molecules for their inhibitory activity against the PIP3-SH2 interaction. Specifically, we expressed SH2 domains as EGFP-tagged proteins and directly quantified their membrane binding by monitoring the quenching of EGFP fluorescence emission intensity by a dark quencher-containing lipid, N-dimethylaminoazo-benzenesulfonyl-phosphatidylethanolamine (dabsyl-PE), incorporated in the vesicles. We then screened for compounds that inhibited binding of Syk-cSH2, BLNK-SH2, and PLCγ2-cSH2, respectively, to 1-palmitoyl-2-oleoyl-PC (POPC)/1-palmitoyl-2-oleoyl-PS (POPS)/PIP3/dabsyl-PE (67:20:3:10) vesicles while eliminating those that inhibit their non-specific binding to anionic POPC/POPS/dabsyl-PE (70:20:10) vesicles. The quality of the screening system was evaluated using 1% dimethylsulfoxide (DMSO) and 20 μM D-myo-inositol-1,3,4,5-tetraphosphate (IP4) as negative and positive controls, respectively. The clear separation of positive and negative control data and the average Z′-factor of 0.7 supported the robustness of our system for high-throughput screen of PIP3-SH2 interaction inhibitors.

[3] = target: T2, Syk-cSH2 (Homo sapiens, UniProt P43405); experiment: Fluorescence quenching vesicle binding assay, Syk-cSH2; details: for IC50: read-out: IC50
T2 construct: polyhistidine (N); made in house; host or cells: Escherichia coli BL21 (DE3) pLysS
Experimental: as §2, §3

[4] = tested on: phosphorylation of ERK1/2 and STAT3/5; experiment: Western blot of phosphorylation in HL60 cells; assay type: cell-based; details: RAS-mutated HL60 cells; 5 μM
Experimental: FIGS. 3A-3D show the inhibition of the signaling activity and proliferation of HL-60 AML cells by Syk-cSH2 inhibitors. […] DMSO was used as a negative control and GAPDH as a gel loading control. […] (c) Inhibition of phosphorylation of Syk, STAT3/5 and ERK1/2 in patient-derived primary AML cells by WC36. Cells were cultured overnight in the presence of CD34+ cytokine supplement. DMSO was used as a negative control. Representative data from one (Patient 1) of four patient samples are shown here. (d) Inhibition of the proliferation of four patient AML cells by WC36 measured by the colony growth assay. The number of colonies after WC36 treatment was normalized to the enumerated colonies after DMSO treatment.
as §1

[5] = Table 4, POPC/POPS/PIP3/dabsyl-PE (67:20:3:10) vesicles (40 μM)
[6] = Table 3, efficacy determined by the vesicle binding assay

Row | Compound | inhibition of phosphorylation of Syk, STAT3/5 and ERK1/2 [1] | Emax [2, 5] | inhibition of ZAP-70-cSH2 binding to POPC/POPS/PIP3/dabsyl-PE vesicles [2] | Imax (%) [3, 6] | IC50 [3, 6] | Imax (%) [3, 5] | inhibition of phosphorylation of ERK1/2 and STAT3/5 [4] | IC50 [2, 5]
1 | [N-]=[N+]=C(C(=O)OC1CCCCC1)C(Nc1ncccn1)c1ccco1 (racemic) [WC35, Cyclohexyl 2-diazo-3-(furan-2-yl)-3-(pyrimidin-2-ylamino)propanoate] | less active than entospletinib for both Syk and ERK1/2 inhibition | < 20% | did not inhibit binding | Imax (%) = 50 | 150 nM | 50 ± 5% | less active then WC36 | –
2 | [N-]=[N+]=C(C(=O)OC1CCCCC1)C(Nc1ncccn1)c1c[nH]c2ccccc12 (racemic) [WC36, Cyclohexyl 2-diazo-3-(1H-indol-3-yl)-3-(pyrimidin-2-ylamino)propanoate] | suppressed phosphorylation of Syk and STAT3/5 as potently as entospletinib but were modestly less active than entospletinib for ERK1/2 inhibition | < 10% | did not inhibit binding | Imax (%) = 60 | 40 nM | 60 ± 5% | potent against phosphorylation of ERK1/2 and STAT3 | –
3 | [N-]=[N+]=C(C(=O)OC1CCCCC1)C(Nc1ncccn1)c1ccc[nH]1 (racemic) [WC38, Cyclohexyl 2-diazo-3-(pyrimidin-2-ylamino)-3-(1H-pyrrol-2-yl)propanoate] | suppressed phosphorylation of Syk and STAT3/5 as potently as entospletinib but were modestly less active than entospletinib for ERK1/2 inhibition | 30 ± 5% | did not inhibit binding | Imax (%) = 70 | 120 nM | 70 ± 5% | less active then WC36 | 340 ± 20 nM
